Test results taken from BindingDB's records for doi:10.1021/jm00020a029 (Merck Research Laboratories, 1995).
*1 amine or outer side, *2 acyl side, *3 side chain or, on linkers, in order; H or OH if unused. Where a SMILES comes first, the peptide text is derived from it. [ ]: non-standard residue; d: D form. ξ: configuration not given here. Phe(3,4-Cl2) = N[C@@H](Cc1ccc(Cl)c(Cl)c1)C(=O)O; X1 = COc1c(I)cc(C[C@H](N[*:1])C(=O)[*:2])cc1I; ξTyr(3,5-I2) = NC(Cc1cc(I)c(O)c(I)c1)C(=O)O; Tyr(3-I) = N[C@@H](Cc1ccc(O)c(I)c1)C(=O)O; Phe(4-F) = N[C@@H](Cc1ccc(F)cc1)C(=O)O; hArg = N=C(N)NCCCC[C@H](N)C(=O)O; Cha = N[C@@H](CC1CCCCC1)C(=O)O

Key:
[1] = Evaluated for the activity of Radio-ligand Peptides upon the activation of human thrombin receptor measured by platelet aggregation
[2] = molecular target: T1, Proteinase-activated receptor 1 (Homo sapiens, UniProt P25116); assay: Evaluated for the activation of human thrombin receptor measured by platelet aggregation
T1 sequence (P25116 whole entry): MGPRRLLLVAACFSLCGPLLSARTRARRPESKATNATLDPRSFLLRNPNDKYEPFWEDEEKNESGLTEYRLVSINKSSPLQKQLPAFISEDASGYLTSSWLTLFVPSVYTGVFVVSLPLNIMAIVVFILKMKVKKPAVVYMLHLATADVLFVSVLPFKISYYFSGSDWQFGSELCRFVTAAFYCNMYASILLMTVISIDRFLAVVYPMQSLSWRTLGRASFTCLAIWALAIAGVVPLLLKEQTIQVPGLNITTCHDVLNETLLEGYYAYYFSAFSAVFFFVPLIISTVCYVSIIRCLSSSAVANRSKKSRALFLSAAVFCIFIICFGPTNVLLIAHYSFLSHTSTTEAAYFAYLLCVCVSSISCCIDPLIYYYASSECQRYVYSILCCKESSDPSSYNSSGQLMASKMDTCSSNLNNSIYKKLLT

[3] = Evaluated for the activation of human thrombin receptor measured by platelet aggregation

Structure (SMILES)	EC50 [1]	EC50 [2]	EC50 [3]
C[C@H](N)C(=O)N[C@@H](Cc1ccc(F)cc1)C(=O)N[C@@H](CCCNC(=N)N)C(=O)N[C@@H](CC1CCCCC1)C(=O)N[C@@H](CCCCNC(=N)N)C(=O)NC(Cc1cc(I)c(O)c(I)c1)C(N)=O (stereo partly drawn) [(S)-2-((S)-2-{(S)-2-[(S)-2-((S)-2-Amino-propionylamino)-3-(4-fluoro-phenyl)-propionylamino]-5-guanidino-pentanoylamino}-3-cyclohexyl-propionylamino)-6-guanidino-hexanoic acid [1-carbamoyl-2-(4-hydroxy-3,5-diiodo-phenyl)-ethyl]-amide] (H-A[Phe(4-F)]R[Cha][hArg][ξTyr(3,5-I2)]-NH2)	150 nM		
C[C@H](N)C(=O)N[C@@H](Cc1ccc(F)cc1)C(=O)N[C@@H](CCCN=C(N)N)C(=O)N[C@@H](CC1CCCCC1)C(=O)N[C@@H](CCCCN=C(N)N)C(=O)N[C@@H](Cc1ccc(O)c(I)c1)C(N)=O [(S)-2-((S)-2-{(S)-2-[(S)-2-((S)-2-Amino-propionylamino)-3-(4-fluoro-phenyl)-propionylamino]-5-guanidino-pentanoylamino}-3-cyclohexyl-propionylamino)-6-guanidino-hexanoic acid [1-carbamoyl-2-(4-hydroxy-3-iodo-phenyl)-ethyl]-amide] (H-A[Phe(4-F)]R[Cha][hArg][Tyr(3-I)]-NH2)	30 nM		
C[C@H](N)C(=O)N[C@@H](Cc1ccc(F)cc1)C(=O)N[C@@H](CCCNC(=N)N)C(=O)N[C@@H](CC1CCCCC1)C(=O)N[C@@H](CCCCNC(=N)N)C(=O)N[C@@H](Cc1ccc(O)cc1)C(N)=O [(S)-2-((S)-2-{(S)-2-[(S)-2-((S)-2-Amino-propionylamino)-3-(4-fluoro-phenyl)-propionylamino]-5-guanidino-pentanoylamino}-3-cyclohexyl-propionylamino)-6-guanidino-hexanoic acid [1-carbamoyl-2-(4-hydroxy-phenyl)-ethyl]-amide] (H-A[Phe(4-F)]R[Cha][hArg]Y-NH2)		160 nM	
CC(C)C[C@H](NC(=O)[C@H](Cc1ccc(Cl)c(Cl)c1)NC(=O)[C@H](C)N)C(=O)N[C@@H](CC1CCCCC1)C(=O)N[C@@H](CCCNC(=N)N)C(N)=O [(S)-2-[(S)-2-((S)-2-Amino-propionylamino)-3-(3,4-dichloro-phenyl)-propionylamino]-4-methyl-pentanoic acid [(S)-1-((S)-1-carbamoyl-4-guanidino-butylcarbamoyl)-2-cyclohexyl-ethyl]-amide] (H-A[Phe(3,4-Cl2)]L[Cha]R-NH2)	300 nM		270 nM
COc1c(I)cc(C[C@H](NC(=O)[C@H](Cc2ccc(Cl)c(Cl)c2)NC(=O)[C@H](C)N)C(=O)N[C@@H](CC2CCCCC2)C(=O)N[C@@H](CCCNC(=N)N)C(N)=O)cc1I [(S)-2-{(S)-2-[(S)-2-[(S)-2-((S)-2-Amino-propionylamino)-3-(3,4-dichloro-phenyl)-propionylamino]-3-(3,5-diiodo-4-methoxy-phenyl)-propionylamino]-3-cyclohexyl-propionylamino}-5-guanidino-pentanoic acid amide] (H-A[Phe(3,4-Cl2)][X1][Cha]R-NH2)	1500 nM		10 nM
CC(C)C[C@H](NC(=O)[C@H](CC(C)C)NC(=O)[C@H](Cc1ccccc1)NC(=O)[C@@H](N)CO)C(=O)N[C@@H](CCCNC(=N)N)C(=O)N[C@@H](CC(N)=O)C(=O)N1CCC[C@H]1C(=O)N[C@@H](CC(N)=O)C(=O)N[C@@H](CC(=O)O)C(N)=O [SFLLRDPQD-NH2] (H-SFLLRNPND-NH2)			3300 nM
